According to patent publication US20140271584A1, “Methods and Compositions for Direct Reprogramming of Somatic Cells to Stem Cells, and Uses of these Cells” (THE RESEARCH FOUNDATION FOR THE STATE UNIVERSITY OF NEW YORK, priority 2013, published 2014):

Tested on: AF cells
Experiment: Colony formation of OCT4 lentivirus-transduced AF cells in ES or endothelial cell medium
Assay type: cell-based, human
Method: Transduction via integrating plasmid. Lentivirus based vectors carrying human SOX2 or OCT4 gene, or GFP only gene, each expressed under control of either the SFFV promoter or EF1α promoter, were packaged using the 293FT cell line (Invitrogen/Life Technologies, Inc.) to produce lentivirus. The viruses were concentrated by centrifugation and stored at −80° C. One day before infection, tissue culture dishes were coated with poly-L-ornithine (PLO) and laminin AF, BM, or HFF cells were seeded at a density of 15,000 cells/cm^2. Lentiviruses were added at a MOI of 10-100 in the presence of 8 μg/ml polybrene (EMD Millipore, Billerica, Mass.) for 6 hours. Efficiency was measured after 24-48 hours by expression of green fluorescence.
After viral transduction, cells were transferred to human ES (embryonic stem cell) medium (supplemented with 20% Knockout Serum replacement, 2 mM glutamine, 0.1 mM non-essential amino acids, 10 ng/ml bFGF, 100 μM β-Mercaptoethanol) or endothelial cell medium, such as EGM2 (Lonza, Inc.).

SMILES | increase of the efficiency of colony formation (accelerated and increased) (0.1 mM in the culture media) | increase of the efficiency of colony formation (accelerated and increased) (10 μM in the culture media)
Nc1ncnc2c1nc(Br)n2[C@@H]1O[C@@H]2COP(=O)(O)O[C@H]2[C@H]1O [8-Br-cAMP, (1S,6R,8R,9R)-8-(6-amino-8-bromopurin-9-yl)-3-hydroxy-3-oxo-2,4,7-trioxa-3λ5-phosphabicyclo[4.3.0]nonan-9-ol] | approximately 15% | 
Cc1cccc(-c2n[nH]cc2-c2ccc3ncccc3n2)n1 [compound 616452, 2-(3-(6-Methylpyridin-2-yl)-1H-pyrazol-4-yl)-1,5-naphthyridine] |  | approximately 15%
